Results taken from PubChem BioAssay (NCI).
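Compound exposure: 48 hours, 5 concentrations, 96-well plates. The concentration for full growth arrest is given as TGI.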

What was measured:
Experiment in all cases: growth of human tumour cells (NCI), 48 h
SK-MEL-2 melanoma = test system: SK-MEL-2 melanoma
K-562 leukemia = test system: K-562 leukemia
SK-MEL-5 melanoma = test system: SK-MEL-5 melanoma
MDA-MB-435 = test system: MDA-MB-435
A549 NSCLC = test system: A549 NSCLC
NCI/ADR-RES ovarian = test system: NCI/ADR-RES ovarian
OVCAR-5 ovarian = test system: OVCAR-5 ovarian
HOP-62 NSCLC = test system: HOP-62 NSCLC
RXF 393 renal = test system: RXF 393 renal
TK-10 renal = test system: TK-10 renal
T-47D breast = test system: T-47D breast
KM12 colon = test system: KM12 colon
UACC-257 melanoma = test system: UACC-257 melanoma
UACC-62 melanoma = test system: UACC-62 melanoma
U251 CNS = test system: U251 CNS
MDA-N = test system: MDA-N
NCI-H460 lung = test system: NCI-H460 lung
SN12C renal = test system: SN12C renal
NCI-H226 lung = test system: NCI-H226 lung
MOLT-4 leukemia = test system: MOLT-4 leukemia
MDA-MB-231 breast = test system: MDA-MB-231 breast
PC-3 prostate = test system: PC-3 prostate
HCC-2998 colon = test system: HCC-2998 colon
CAKI-1 renal = test system: CAKI-1 renal
HT29 colon = test system: HT29 colon
OVCAR-8 ovarian = test system: OVCAR-8 ovarian
M14 melanoma = test system: M14 melanoma
LOX IMVI melanoma = test system: LOX IMVI melanoma
MCF7 breast = test system: MCF7 breast
SNB-75 CNS = test system: SNB-75 CNS
SF-295 CNS = test system: SF-295 CNS
MALME-3M melanoma = test system: MALME-3M melanoma
NCI-H23 lung = test system: NCI-H23 lung
COLO 205 colon = test system: COLO 205 colon
SNB-19 CNS = test system: SNB-19 CNS
HS 578T breast = test system: HS 578T breast
HL-60(TB) leukemia = test system: HL-60(TB) leukemia
NCI-H522 lung = test system: NCI-H522 lung
OVCAR-3 ovarian = test system: OVCAR-3 ovarian
HCT-116 colon = test system: HCT-116 colon
786-0 renal = test system: 786-0 renal
A498 renal = test system: A498 renal
SF-539 CNS = test system: SF-539 CNS
SW-620 colon = test system: SW-620 colon
HCT-15 colon = test system: HCT-15 colon
CCRF-CEM leukemia = test system: CCRF-CEM leukemia
SK-MEL-28 melanoma = test system: SK-MEL-28 melanoma
IGROV1 ovarian = test system: IGROV1 ovarian
RPMI-8226 leukemia = test system: RPMI-8226 leukemia
EKVX NSCLC = test system: EKVX NSCLC
DU-145 prostate = test system: DU-145 prostate
HOP-92 NSCLC = test system: HOP-92 NSCLC
ACHN renal = test system: ACHN renal
SF-268 CNS = test system: SF-268 CNS
OVCAR-4 ovarian = test system: OVCAR-4 ovarian

SMILES: COc1cc2c3c([nH]c2c(OC)c1OC)CCN(Cc1ccccc1)C3
- TGI (SK-MEL-2 melanoma): 47.1 µM
- TGI (K-562 leukemia): 84.2 µM
- TGI (SK-MEL-5 melanoma): 34.9 µM
- TGI (MDA-MB-435): 35 µM
- TGI (A549 NSCLC): > 100 µM
- TGI (NCI/ADR-RES ovarian): > 100 µM
- TGI (OVCAR-5 ovarian): > 100 µM
- TGI (HOP-62 NSCLC): > 100 µM
- TGI (RXF 393 renal): > 100 µM
- TGI (TK-10 renal): 78.9 µM
- TGI (T-47D breast): 68.6 µM
- TGI (KM12 colon): > 100 µM
- TGI (UACC-257 melanoma): 40 µM
- TGI (UACC-62 melanoma): > 100 µM
- TGI (U251 CNS): 87.4 µM
- TGI (MDA-N): 33.9 µM
- TGI (NCI-H460 lung): 63.5 µM
- TGI (SN12C renal): > 100 µM
- TGI (NCI-H226 lung): > 100 µM
- TGI (MOLT-4 leukemia): > 100 µM
- TGI (MDA-MB-231 breast): > 100 µM
- TGI (PC-3 prostate): > 100 µM
- TGI (HCC-2998 colon): 34.6 µM
- TGI (CAKI-1 renal): > 100 µM
- TGI (HT29 colon): 49.9 µM
- TGI (OVCAR-8 ovarian): > 100 µM
- TGI (M14 melanoma): 30 µM
- TGI (LOX IMVI melanoma): 32.1 µM
- TGI (MCF7 breast): 41.8 µM
- TGI (SNB-75 CNS): > 100 µM
- TGI (SF-295 CNS): > 100 µM
- TGI (MALME-3M melanoma): 38.1 µM
- TGI (NCI-H23 lung): > 100 µM
- TGI (COLO 205 colon): 32 µM
- TGI (SNB-19 CNS): > 100 µM
- TGI (HS 578T breast): > 100 µM
- TGI (HL-60(TB) leukemia): > 100 µM
- TGI (NCI-H522 lung): > 100 µM
- TGI (OVCAR-3 ovarian): > 100 µM
- TGI (HCT-116 colon): > 100 µM
- TGI (786-0 renal): > 100 µM
- TGI (A498 renal): 72.3 µM
- TGI (SF-539 CNS): 38.5 µM
- TGI (SW-620 colon): > 100 µM
- TGI (HCT-15 colon): > 100 µM
- TGI (CCRF-CEM leukemia): > 100 µM
- TGI (SK-MEL-28 melanoma): 50.5 µM
- TGI (IGROV1 ovarian): > 100 µM
- TGI (RPMI-8226 leukemia): 52.5 µM
- TGI (EKVX NSCLC): > 100 µM
- TGI (DU-145 prostate): > 100 µM
- TGI (HOP-92 NSCLC): 41.5 µM
- TGI (ACHN renal): > 100 µM
- TGI (SF-268 CNS): > 100 µM
- TGI (OVCAR-4 ovarian): > 100 µM
